The values that follow come from EP0361645B1, “Organic hydrazine derivatives for pharmaceutical use” (ROHM AND HAAS COMPANY, priority 1988, dated 1990).

In this assay the target is T1, ecdysone receptor (Drosophila melanogaster, UniProt P34021).
T1 construct: endogenous in cells; host or cells: Drosophila Kr (Kc) cells, undiluted cytosolic extract
T1 sequence (P34021 1-878): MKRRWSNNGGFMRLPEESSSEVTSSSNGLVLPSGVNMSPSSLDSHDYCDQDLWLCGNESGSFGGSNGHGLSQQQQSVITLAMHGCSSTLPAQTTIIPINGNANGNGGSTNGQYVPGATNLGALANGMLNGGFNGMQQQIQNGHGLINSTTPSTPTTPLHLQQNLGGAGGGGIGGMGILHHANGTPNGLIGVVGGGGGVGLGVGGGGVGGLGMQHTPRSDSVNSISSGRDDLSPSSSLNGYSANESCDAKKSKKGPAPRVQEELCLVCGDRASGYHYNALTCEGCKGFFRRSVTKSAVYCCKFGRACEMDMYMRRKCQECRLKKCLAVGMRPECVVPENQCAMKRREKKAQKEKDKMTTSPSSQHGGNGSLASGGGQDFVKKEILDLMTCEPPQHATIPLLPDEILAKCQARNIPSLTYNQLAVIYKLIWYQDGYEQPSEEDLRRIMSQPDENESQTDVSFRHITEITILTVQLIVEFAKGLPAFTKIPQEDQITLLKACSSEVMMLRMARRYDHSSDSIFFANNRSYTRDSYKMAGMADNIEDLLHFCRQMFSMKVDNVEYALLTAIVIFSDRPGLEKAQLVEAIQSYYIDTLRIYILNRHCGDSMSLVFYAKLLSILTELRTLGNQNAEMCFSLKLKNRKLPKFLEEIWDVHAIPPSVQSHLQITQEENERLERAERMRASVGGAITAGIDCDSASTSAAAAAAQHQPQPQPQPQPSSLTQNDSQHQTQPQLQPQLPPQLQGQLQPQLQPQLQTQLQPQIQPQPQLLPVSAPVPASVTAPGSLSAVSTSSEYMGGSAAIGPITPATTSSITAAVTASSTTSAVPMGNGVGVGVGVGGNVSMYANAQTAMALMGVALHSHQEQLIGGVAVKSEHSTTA
T1 sequence (P20153 1-508 partner): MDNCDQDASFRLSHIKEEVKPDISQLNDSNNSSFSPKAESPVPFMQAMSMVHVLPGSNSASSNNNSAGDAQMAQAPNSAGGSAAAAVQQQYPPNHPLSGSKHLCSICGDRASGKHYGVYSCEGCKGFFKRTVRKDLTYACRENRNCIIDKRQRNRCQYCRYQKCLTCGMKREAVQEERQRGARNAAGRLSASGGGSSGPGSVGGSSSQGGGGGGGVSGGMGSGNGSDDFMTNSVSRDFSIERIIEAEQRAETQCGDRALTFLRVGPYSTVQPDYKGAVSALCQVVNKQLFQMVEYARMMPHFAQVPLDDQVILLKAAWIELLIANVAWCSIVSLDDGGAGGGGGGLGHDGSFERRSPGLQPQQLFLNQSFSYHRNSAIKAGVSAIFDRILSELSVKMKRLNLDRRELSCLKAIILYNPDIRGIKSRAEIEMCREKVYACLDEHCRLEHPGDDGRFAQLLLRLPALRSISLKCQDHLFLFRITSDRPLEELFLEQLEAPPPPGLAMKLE
As to the kind of experiment: ^3H-ponasterone A binding to / displacement from Kr cell cytosolic receptor extracts. On the procedure:
The invention will now be further described by way of exemplification and by reference to the drawings in which; • Figure 1. Both 20-hydroxyecdysone and Example No. 3 induce process elaboration (A) and inhibition of cell proliferation (B) in Kr cells in a dose-dependent manner. Initial cell density was 2 X 10^6 cells/ml; after incubation of 1 ml aliquots of the cells with the compound for 48 hours the cells were triturated gently and the percentage of cells responding (with processes longer than approximately 17 um, see Cherbas et al. 189 Wilhelm Roux's Arch. 1 (1980)) and total cell density was determined by hemocytom- eter counting, relative to ethanol (1 ul)-treated controls. Determinations were in triplicate for each dose. […] Induction of acetylcholinesterase by varying concentrations of 20-hydroxyecdysone and Example No. 3. Kr cells at an initial density of 3 X 10^6 cells/ml (10 ml per sample) were incubated with the agonist for three days. After harvesting, by centrifugation at 3000 X g, the cell pellets were washed with Robb's Drosophila saline (18, 2 X 5 ml) at 4 ° C, then lysed by sonication in 1 ml of phosphate buffer (pH 7.4, I = 0.1 M) containing 0.5 M NaCI, 0.25 M EDTA and 0.5% TRITON? X-100. See Cherbas, 197 Science 275 (1977). Triton is a registered trademark of Rohm and Haas Company for a alkylaryl polyoxyethylene glycol surfactant. After centrifugation at 16,000 X g, the supernatants were assayed for acetylcholinesterase activity by an adaptation of the method of Ellman et al., 7 Biochem. Pharmacol. 88 (1961), by subtracting out any 412 nm absorbance observed in incubations in the presence of 2 X 10-5 eserine sulfate. Thus reaction mixtures contained 50 ul of enzyme extract, 20 ul eserine (blank tubes only) and 1.0 ml of 0.5 mM acetylthiocholine, 0.3 mM dithiobisnitrobenzoic acid in phosphate buffer (pH 7.4, I = 0.1 M). Incubations were at 25 ° C for two hours; reactions in active tubes were terminated by addition of eserine. Absorbance at 412 nm was then measured. Protein concentration in extracts was measured by the Biorad method. […] Scatchard plot of ^3H-ponasterone A binding to Kr cell cytosolic receptor extracts in the presence of differing concentrations of Example No. 3. Cytosolic extract preparation and ecdysteroid receptor assays were essentially as described in Sage, 111 Meth. in Enzymol. 458 (1985). Example No. 3 was added in 1 ul DMSO to 50 ul of radioligand in 10 mM Tris buffer (pH 7.2) and 50 ul of undiluted cytosol extract. After incubation overnight at 0.5 ° C, bound label was separated from free by addition of 300 ul 1% HCI-washed charcoal (Sigma) and 0.1% Dextran T70 (Pharmacia) in Tris buffer, centrifugation (13,000 X g, 3 min, 4 ° C) and liquid scintillation counting of a 300 ul aliquot of the supernatant in 15 ml Hydrofluor (National Diagnostics). Points are means of duplicate determinations. […] Relative ability of 20 hydroxyecdysone and Example No. 3 to displace ^3H-ponasterone A from cytosolic receptor extracts. Conditions were as in Figure 3 except that only 0.5 nM ponasterone A was used. • Points are means of duplicate determinations. For 20-hydroxyecdysone EC50 = 0.1 uM while for Example No. 3 EC50 = 3.0 uM. Control binding = 10 femtomoles ^3H-ponasterone A bound per mg cytosol protein. • Figure 4. Effects of 10 ppm Example No. 3 administered in artificial diet to newly ecdysed fourth instar (L4) M. sexta, monitoring (A)immunoreactive hemolymph ecdysteroid titers and (B)weight gain. Ecdysteroid titers were measured by a radioimmunoassay adapted from Warren et al., 40 Experientia 393 (1984) with Protein A-Staph. aureus suspension (Sigma) used as the reagent to separate bound from free ligand. The antiecdysone antiserum was formed by reaction of 20-hydroxyecdysone with carboxymethox- yamine resulting in the corresponding ecdysteroid 6-oxime acid. […] All samples were diluted appropriately in borate buffer pH 8.0 and assayed in duplicate. […]

Where two headings read alike, the source gives them in different places.

For `CC(C)(O)CC[C@@H](O)[C@](C)(O)[C@H]1CC[C@@]2(O)C3=CC(=O)[C@@H]4C[C@@H](O)[C@@H](O)C[C@]4(C)[C@H]3CC[C@]12C` [20-hydroxyecdysone, reference compound], the IC50 (0.5 nM ponasterone A (Figure 3B legend), read-out: EC50, displacement of ^3H-ponasterone A from cytosolic receptor extracts) was found to be 0.1 µM. Further, where the note is “ratio of IC50”, the “fold greater apparent affinity than Example No. 3” value turned out to be 30 fold.

The molecule `CC(C)(C)N(NC(=O)c1ccccc1)C(=O)c1ccccc1` [Example No. 3, N'-t-butyl-N,N'-dibenzoylhydrazine] displayed an IC50 of 3 µM. In addition, where the note is “Kd increases, Bmax remains the same”, the “mode of inhibition of ^3H-ponasterone A binding” value is “competitive mode of inhibition”. Also, the “fold lower apparent binding affinity than 20-hydroxyecdysone” value (Kr cell extracts) is listed as 30 fold.
